In a flash point compilation (Sun et al. 2020):

First: CC(C)CCCCCOC(=O)COc1ccc(Cl)cc1Cl [6-methylheptyl 2-(2,4-dichlorophenoxy)acetate]
Second: C=CC(=O)OCCCCCCCC(C)C [8-methylnonyl prop-2-enoate]
The flash point of the first is lower: 48.00 °C for the first, 116.00 °C for the second.

Going from `CCOCCOC(C)=O` [2-ethoxyethyl acetate] to `CC(=O)OCCOCCOCCOC(C)=O` [2-[2-(2-acetyloxyethoxy)ethoxy]ethyl acetate], the flash point rises from 57.00 °C to 174.00 °C.

Compared with `Nc1ccccc1F` [2-fluoroaniline], `Cc1ccccc1Br` [1-bromo-2-methylbenzene] is higher in flash point: 60.00 °C for the first, 79.00 °C for the second.

Going from `CCC(C)=NO` [N-butan-2-ylidenehydroxylamine] to `C=C(C)C` [2-methylprop-1-ene], the flash point falls from 59.00 °C to -76.00 °C.

Going from `CCCCOC(=O)c1ccccc1` [butyl benzoate] to `CN(C)c1ccccc1` [N,N-dimethylaniline], the flash point falls from 107.00 °C to 63.00 °C.

Compared with `OCC=CCO` [but-2-ene-1,4-diol], `CC(C)=CCC/C(C)=C/CO` [(2E)-3,7-dimethylocta-2,6-dien-1-ol] is lower in flash point: 128.00 °C for the first, 108.00 °C for the second.

First: CCCCCO[N+](=O)[O-] [pentyl nitrate]
Second: C=CCCCCCCC [non-1-ene]
The flash point of the first is higher: 49.00 °C for the first, 26.00 °C for the second.

Compared with `CC(=O)Nc1ccc(C)cc1` [N-(4-methylphenyl)acetamide], `COc1ccc(C=O)cc1` [4-methoxybenzaldehyde] is lower in flash point: 168.00 °C for the first, 116.00 °C for the second.

Going from `Clc1cc(Cl)cc(Cl)c1` [1,3,5-trichlorobenzene] to `Clc1ccc(Cl)c(Cl)c1` [1,2,4-trichlorobenzene], the flash point rises from 107.00 °C to 110.00 °C.

Compared with `CC(C)=CC=O` [3-methylbut-2-enal], `CCOP(=O)(O)O` [ethyl dihydrogen phosphate] is higher in flash point: 37.00 °C for the first, 116.00 °C for the second.

Going from `O=[N+]([O-])C(Br)=Cc1ccccc1` [(2-bromo-2-nitroethenyl)benzene] to `ClC=Cc1ccccc1` [2-chloroethenylbenzene], the flash point rises from 54.00 °C to 58.00 °C.

First: C=COCCCl [1-chloro-2-ethenoxyethane]
Second: C=CC(=O)OCCN(C)C [2-(dimethylamino)ethyl prop-2-enoate]
The flash point of the first is lower: 16.00 °C for the first, 29.00 °C for the second.

Compared with `CC(C)(C)OOC(C)(C)CCC(C)(C)OOC(C)(C)C` [2,5-bis(tert-butylperoxy)-2,5-dimethylhexane], `CC(C)(C)CC(C)(C)S` [2,4,4-trimethylpentane-2-thiol] is lower in flash point: 85.00 °C for the first, 46.00 °C for the second.

`Cc1ccccn1` [2-methylpyridine] and `Cc1cccnc1` [3-methylpyridine] are the same in flash point: 36.00 °C for the first, 36.00 °C for the second.

Compared with `O=C(O)CC(O)(CC(=O)O)C(=O)O` [2-hydroxypropane-1,2,3-tricarboxylic acid], `CCCCCCCCCCCCCCCCCC(=O)NCCNC(=O)CCCCCCCCCCCCCCCCC` [N-[2-(octadecanoylamino)ethyl]octadecanamide] is higher in flash point: 100.00 °C for the first, 280.00 °C for the second.

First: O=C1OC(=O)c2ccccc21 [2-benzofuran-1,3-dione]
Second: CC(C)(C)c1ccccc1O [2-tert-butylphenol]
The flash point of the first is higher: 152.00 °C for the first, 110.00 °C for the second.

First: Clc1cccc(C(Cl)(Cl)Cl)n1 [2-chloro-6-(trichloromethyl)pyridine]
Second: Cc1cc(C)cc(N)c1 [3,5-dimethylaniline]
The flash point of the first is higher: 100.00 °C for the first, 93.00 °C for the second.

First: CCOP(=S)(OCC)Oc1cc(C)nc(N(CC)CC)n1
Second: CC(COc1ccc(Oc2ccccc2)cc1)Oc1ccccn1 (configuration not stated) [2-[1-(4-phenoxyphenoxy)propan-2-yloxy]pyridine]
The flash point of the first is lower: 113.00 °C for the first, 119.00 °C for the second.

`CC12CCC(CC1=O)C2(C)C` (configuration not stated) [1,7,7-trimethylbicyclo[2.2.1]heptan-2-one] showed a flash point of 66.00 °C.
